{"source": "patent US11446354B2", "about": "“Method of treatment” (Hexima Limited, priority 2014, dated 2022)", "key": {"[1]": {"system": "Human monocytic lymphoma (U937) cells", "format": "cell-based", "experimental": "Human monocytic lymphoma (U937) cells are cultured in RPMI-1640 medium. All culture media are supplemented with 5-10% v/v fetal calf serum, 100 U/ml of penicillin, and 100 μg/ml of streptomycin. Cell lines are cultured at 37° C. in a humidified atmosphere containing 5% v/v CO2. Adherent cell lines are detached from the flask by adding a mixture containing 0.25% v/v trypsin and […]. A flow cytometry-based propidium iodide (PI) uptake assay is performed to analyze the ability of plant defensins to permeabilize U937 cells (essentially as described in Poon et al, 2014). Briefly, cells are suspended to 1×10^6 cells/ml in 0.1% v/v BSA/RPMI-1640 and incubated with plant defensins (10 μM) at 37° C. for 30 min. Samples are added to PBS containing a final concentration of 1 μg/ml PI and placed on ice. Samples are then analyzed immediately using the BD FACSCanto II Flow Cytometer and BD FACSDiva software v6.1.1. The resultant flow cytometry data is analyzed using FlowJo software v8.8.6. Cells are gated appropriately based on forward scatter and side scatter and cell permeabilization is defined by PI-positive staining."}, "[2]": {"format": "in vitro ADME, Human", "experimental": "Penetration of NaD1 through human nails was measured according to the method of Hui et al. (2002) J Pharm Sci 91(1):189-195. Human toenails were obtained from ScienceCare (USA) and washed with phosphate buffered saline (details, PBS) before being placed on a kimwipe that had been soaked in PBS for 3 h to rehydrate the nail. The nail was then placed in a plastic nail adapter with a dosing area of 0.5×0.5 cm (Permagear, USA) and a cotton bud wetted with 75 microlitres of PBS was placed in the receptor chamber in contact with the underside of the nail.\nThe cotton bud in contact with the underside of the nail was removed after 24 h and every 24 h following. Protein that had passed through the nail was recovered from the cotton bud by washing twice with 500 μL of 0.1% v/v trifluoroacetic acid. Recovered protein was quantified using RP-HPLC."}, "Escherichia coli": {"system": "Escherichia coli", "test": "Inhibition of the growth of Escherichia coli", "format": "cell-based", "settings": "0.1625-10 μM, 18 hours, 37° C.", "experimental": "A single E. coli colony was used to inoculate 5 ml of Luria-Bertani media and grown overnight at 37° C. The following day, the optical density of the culture was measured and the E. coli diluted to an optical density at 600 nm (OD600) of 0.01 in Mueller-Hinton Broth. Diluted E. coli were added to 96-well plates with defensins at concentrations of 10 μM, 5 μM, 2.5 μM, 1.25 μM, 0.625 μM, 0.3125 μM or 0.1625 μM. Plates were read at OD595 to obtain time zero data points. Plates were incubated at 37° C. for 18 hours before reading again at OD595 to assess the amount of E. coli growth."}, "[3]": {"system": "clinical isolates of T. rubrum", "test": "Cell survival assay, clinical isolates of T. rubrum plated after 72 h with HXL008", "format": "cell-based, Trichophyton rubrum", "settings": "72 h with HXL008 (100 g/mL, 100 μM elsewhere in the source), 5 days at 30° C.", "experimental": "FIGS. 3(a) through (e) are photographic representations of surviving colonies of T. rubrum grown on agar plates after treatment with 100 μM HXL008 for 72 h. Panels (a) to (d) represent clinical isolates 14-01, 14-02, 14-03 and 13-04, respectively. Surviving colonies are marked with a black rectangle. Panel (e) represents the growth of T. rubrum that has not been treated with HXL008.\nAfter incubation for 72 h, the media from wells containing clinical isolates of T. rubrum incubated with 100 […] HXL008 was plated onto fresh Sabouraud dextrose agar. Plates were incubated at 30° C. for 5 days to allow colonies to develop before being photographed."}, "[4]": {"system": "Trichophyton rubrum, T. interdigitale, Microsporum fulvum and C. albicans", "test": "Inhibition assays summarised across the range of fungal pathogens", "format": "cell-based", "settings": "summary of Table 3", "experimental": "The inhibitory effects of the plant defensins on the growth of Trichophyton rubrum, T. interdigitale, Microsporum fulvum and C. albicans (obtained from the National Mycology Reference Centre, South Australia Pathology at the Women's and Children's Hospital, Adelaide, Australia) are measured essentially as described by Broekaert et al. (1990) FEMS Microbiol Lett 69:55-59. Spores of T. rubrum, T. interdigitale and M. fulvum are isolated from sporulating fungus growing on 1⁄2 strength Sabouraud dextrose agar (SDA). Spores were removed from the plates by the addition of 1⁄2 strength potato dextrose broth (PDB). C. albicans cells are grown in Yeast Peptone Broth (YPD) for 16 h. Spore and cell concentrations are measured using a hemocytometer. Antifungal assays are conducted in 96 well microtitre plates essentially as herein described. Wells are loaded with 20 μL of filter sterilized (0.22 μm syringe filter, Millipore) defensin (10× stock for each final concentration) or water and 80 μL of 5×10^4 spores/mL (T. rubrum, T, interdigitale, M. fulvum) or 5,000 cells/mL (C. albicans) in 1⁄2 strength PDB. The plates are incubated at 30° C. Fungal growth is assayed by measuring optical density at 595 nm ([…]) using a microtitre plate reader (SpectraMax Pro M2; Molecular Devices. Growth is allowed to proceed until the optical density (OD) of the fungus in the absence of any test defensin reached an OD of 0.2. Each test is performed in duplicate."}, "Trichophyton rubrum": {"system": "Trichophyton rubrum", "test": "Inhibition of growth of Trichophyton rubrum over 28 days, daily dosing", "format": "cell-based", "experimental": "The inhibitory effect of HXL008 on the growth of Trichophyton rubrum (obtained from the National Mycology Reference Centre, South Australia Pathology at the Women's and Children's Hospital, Adelaide, Australia) was monitored over 28 days.\nSpores of T. rubrum, are isolated from sporulating fungus growing on ½ strength Sabouraud dextrose agar. Spores are removed from the plates by the addition of ½ strength potato dextrose broth (PDB). Spore and cell concentrations are measured using a hemocytometer.\nSpores were diluted to a concentration of 5×10^4 spores/mL in ½ PBD (2 mL) containing 0, 10 or 50 μg/mL HXL008. Cultures are incubated at 30 C without shaking. After 24 h, 100 μL of each culture is extracted and plated onto ½ SDA plates. An additional 100 uL of ½ PDB is then added containing either 0, 20 or 100 μg of HXL008. SDA plates are then incubated at 30 C for 5 days. This process is repeated every 24 h for 28 days. After 15 days, the culture containing no HXL008 becomes too thick to pipette and is no longer used in the assay."}}, "data": [{"substance": "HXL008: Class I plant defensin from Picramnia pentandra, SEQ ID NO: 1 (KVCTKPSKFFKGLCGTDGACTTACRKEGLHSGYCQLKGFLNSVCVCRKHC; HXL008 Picramnia pentandra)", "values": [{"measurement": "U937 cells permeabilized (PI-positive)", "setting": "[1]", "result": "less than 2%"}, {"measurement": "Nail penetration, result in words", "setting": "[2]", "result": "able to penetrate nails faster and more effectively than the active ingredients of current topical onychomycosis therapies"}, {"measurement": "Growth of E. coli in the presence of defensin", "setting": "Escherichia coli", "result": "did not inhibit growth of E. coli at the concentrations tested"}, {"measurement": "Surviving colonies on agar plates after incubation with HXL008", "setting": "[3]", "result": "1-3 colonies"}, {"measurement": "Antifungal activity across the range of fungal pathogens, result in words", "setting": "[4]", "result": "most effective plant defensins across the range of fungal pathogens"}, {"measurement": "Visible growth of T. rubrum in culture", "setting": "Trichophyton rubrum; 10 μg/mL or 50 μg/mL, over the duration of the assay (28 days)", "result": "did not display any visible growth"}, {"measurement": "T. rubrum cells killed", "setting": "Trichophyton rubrum; HXL008 50 μg/mL, within 24 h", "result": "more than 80%"}, {"measurement": "Surviving colonies per plate", "setting": "Trichophyton rubrum; after 20 days of treatment, 100 μL plated", "result": "0 or only 1"}]}]}
